Laboratory results as given in ChEMBL document CHEMBL5149973, “Agaricus bisporus-Derived Glucosamine Hydrochloride Facilitates Skeletal Injury Repair through Bmp Signaling in Zebrafish Osteoporosis Model” (J Nat Prod, 2021).
Active and inactive are the calls of the source. No cut-off for these calls is given here.

Columns and labels:
Danio rerio [1] = species: Danio rerio; assay: Anti-osteoporosis activity in FAC-induced skeletal injury Zebrafish larvae assessed as rescue of bone damage measured for 10 day post fertilization by Alizarin red staining based assay; type: functional, organism-based; details: Larva
Danio rerio [2] = species: Danio rerio; assay: Induction of transgenic Zebrafish embryo skeletal development assessed as increase in GFP expression level in neural crest at 0.05 to 0.3 % measured at 24 to 72 hrs post fertilization by DAPI staining based analysis; type: functional, tissue-based; details: dose 0.05-0.3 %, time 24-72 hrs
Danio rerio [3] = species: Danio rerio; assay: Anti-osteoporosis activity in FAC-induced skeletal injury Zebrafish larvae assessed as reduction in bone damage measured for 10 day post fertilization by Alizarin red staining based assay; type: functional, Larva; design: scale not given: the % may be the effect or the level left
Danio rerio [4] = species: Danio rerio; assay: Induction of Zebrafish Larva cartilage development assessed as increase in bone mineralization at 0.05 to 0.3 % measured at 6 days post fertilization by Alizarin red staining based assay; type: functional; details: dose 0.05-0.3 %, time 6.0 day
[5] = Induction of Zebrafish embryo skeletal development assessed as mortality rate of embryo at 0.5 % measured after 72 hrs post fertilization by Alcian blue staining based assay; type: functional, Danio rerio
Danio rerio [6] = species: Danio rerio; assay: Induction of Zebrafish embryo skeletal development assessed as upregulation of col1a2 gene expression at 0.05 to 0.3 % measured after 72 hrs post fertilization by […] analysis; type: functional, tissue-based; details: dose 0.05-0.3 %

## Cl.N[C@@H]1[C@@H](O)[C@H](O)[C@@H](CO)O[C@H]1O
Danio rerio [1]
  Activity: Active
Danio rerio [2]
  Activity: Active
Danio rerio [3]
  Activity: 70%
Danio rerio [4]
  Activity: Active
[5]
  Activity: 100%
Danio rerio [6]
  Activity: Active
